This series in a line: Stability of [99mTc(CO)3(OH2)3]+ prepared with the KF kit. Format: physicochemical. The conditions noted are these: prepared in the presence of KF. As for the experimental part: Commercially available kits contain sodium tartrate to prevent premature decomposition of [^99mTc(CO)3(OH2)3]^+. Thinking that the chelate was interfering with the fluoride mediated complexation reaction, a kit in which KF was substituted for tartrate was prepared.

For the substance [^99mTc(CO)3(OH2)3]^+, the time stable entry is “greater than 6 h”.

Source of the values: patent publication US20060062725A1, “Methods for preparing metal-carborane complexes for radioimaging and radiotherapy” (priority 2004, published 2006).
